# Data taken from paper PMC8632988, “Inhibition of SYK and cSrc kinases can protect bone and cartilage in preclinical models of osteoarthritis and rheumatoid arthritis” (Scientific Reports, 2021).
# “And” between values parts separate entries of the source, which are not always exact repeats. Equal values may be shown once. Read-outs that look alike come from different tables or passages of the source.
# Assay: Pharmacokinetics after single oral administration to rats
# Type: in vivo, rat
# Details: male Wistar rats; for AUCINF / AUClast / Cmax / Terminal t1/2 / concentration at 0.25 h / concentration at 0.5 h / concentration at 1 h / concentration at 2 h / concentration at 4 h / concentration at 8 h / concentration at 24 h / concentration at 48 h: plasma; for concentration at 0.25 h / concentration at 0.5 h / concentration at 1 h / concentration at 2 h / concentration at 4 h / concentration at 8 h / concentration at 24 h / concentration at 48 h: male, Wistar, rat, oral
# Experimental: Experiments were performed at ChemPartner, Shanghai, China and approved by Institutional Ethics Committee (IEC) of ChemPartner. Male Wistar 10–12 weeks old rats with body weights of 185–220 g and male New Zealand rabbits with body weights of 2.0–2.3 kg were purchased from Shanghai SLAC Laboratory Animal Co., Ltd. MT-SYK-03 was administered to the three groups of rats (six rats per group) via oral gavage at 10 mL/kg concentration, and in rabbits 5 mL/kg concentration. Blood samples were kept on ice and centrifuged (2000 g, 4 ℃, 5 min) within 15 min post sampling.
# [1] = Table S6, 100 mg/kg PO, individual Rat#1-6
# [2] = Table S7, 100 mg/kg PO, individual Rat#7-12
# [3] = Table S8, 200 mg/kg PO, individual Rat#13-18
smiles,measurement,setting,value
COc1cc(Nc2ncnc(Nc3cc4c(cn3)NC(=O)C(C)(C)O4)n2)cc(OC)c1OC [MT-SYK-03],Plasma concentration,"Table S6, 100 mg/kg PO, 0.25 h, individual Rat#1-6",257 ng/mL and 127 ng/mL and 313 ng/mL and 251 ng/mL and 240 ng/mL and 283 ng/mL
same,Plasma concentration,"Table S6, 100 mg/kg PO, 0.5 h, individual Rat#1-6",331 ng/mL and 166 ng/mL and 419 ng/mL and 280 ng/mL and 345 ng/mL and 375 ng/mL
same,Plasma concentration,"Table S6, 100 mg/kg PO, 1 h, individual Rat#1-6",470 ng/mL and 220 ng/mL and 487 ng/mL and 367 ng/mL and 392 ng/mL and 483 ng/mL
same,Plasma concentration,"Table S6, 100 mg/kg PO, 2 h, individual Rat#1-6",529 ng/mL and 209 ng/mL and 501 ng/mL and 372 ng/mL and 256 ng/mL and 359 ng/mL
same,Plasma concentration,"Table S6, 100 mg/kg PO, 4 h, individual Rat#1-6",196 ng/mL and 78.0 ng/mL and 171 ng/mL and 170 ng/mL and 226 ng/mL and 206 ng/mL
same,Plasma concentration,"Table S6, 100 mg/kg PO, 8 h, individual Rat#1-6",47.2 ng/mL and 31.2 ng/mL and 92.6 ng/mL and 41.6 ng/mL and 88.8 ng/mL and 43.5 ng/mL
same,Plasma concentration,"Table S6, 100 mg/kg PO, 24 h, individual Rat#1-6",0.818 ng/mL and BQL (2×) and 17.7 ng/mL and 1.57 ng/mL and 16.5 ng/mL
same,Plasma concentration,"Table S6, 100 mg/kg PO, 48 h, individual Rat#1-6",BQL (4×) and 1.55 ng/mL
same,AUCINF,[1],2434 ng·h/mL and 971 ng·h/mL and 3948 ng·h/mL and 2253 ng·h/mL and 2452 ng·h/mL and 2451 ng·h/mL
same,AUClast,[1],2423 ng·h/mL and 869 ng·h/mL and 3933 ng·h/mL and 2069 ng·h/mL and 2446 ng·h/mL and 2297 ng·h/mL
same,Cmax,[1],529 ng/mL and 220 ng/mL and 501 ng/mL and 372 ng/mL and 392 ng/mL and 483 ng/mL
same,Terminal t1/2,[1],7.83 h and 2.28 h and 6.60 h and 7.22 h and 2.78 h and 6.45 h
same,Plasma concentration,"Table S7, 100 mg/kg PO, 8 h, individual Rat#7-12",87.7 ng/mL and 152 ng/mL and 64.3 ng/mL and 178 ng/mL and 89.2 ng/mL and 82.6 ng/mL
same,Plasma concentration,"Table S7, 100 mg/kg PO, 24 h, individual Rat#7-12",32.8 ng/mL and 4.94 ng/mL and 6.04 ng/mL and 1.11 ng/mL and 1.56 ng/mL
same,Plasma concentration,"Table S7, 100 mg/kg PO, 48 h, individual Rat#7-12",BQL
same,AUCINF,[2],4850 ng·h/mL and 3276 ng·h/mL and 4883 ng·h/mL and 4456 ng·h/mL and 3930 ng·h/mL
same,AUClast,[2],4843 ng·h/mL and 3238 ng·h/mL and 4878 ng·h/mL and 4452 ng·h/mL and 3910 ng·h/mL
same,Cmax,[2],1030 ng/mL and 770 ng/mL and 859 ng/mL and 876 ng/mL and 824 ng/mL
same,Terminal t1/2,[2],5.58 h and 4.86 h and 3.71 h and 2.36 h and 2.34 h and 5.52 h
same,Plasma concentration,"Table S8, 200 mg/kg PO, 48 h, individual Rat#13-18",BQL
same,AUCINF,[3],6063 ng·h/mL and 6845 ng·h/mL and 7115 ng·h/mL and 6299 ng·h/mL and 10096 ng·h/mL
same,AUClast,[3],6055 ng·h/mL and 6836 ng·h/mL and 7107 ng·h/mL and 6076 ng·h/mL and 10087 ng·h/mL
same,Cmax,[3],1430 ng/mL and 1360 ng/mL and 1370 ng/mL and 998 ng/mL and 1320 ng/mL
same,Terminal t1/2,[3],6.31 h and 5.70 h and 2.52 h and 2.40 h and 8.67 h and 4.91 h
same,concentration at 0.25 h,"100 mg/kg, Table S6, 100 mg/kg PO, 0.25 h, mean of Rat#1-6, read-out: Plasma concentration, Mean",245 ng/mL
same,concentration at 0.5 h,"100 mg/kg, Table S6, 100 mg/kg PO, 0.5 h, mean of Rat#1-6, read-out: Plasma concentration, Mean",319 ng/mL
same,concentration at 1 h,"100 mg/kg, Table S6, 100 mg/kg PO, 1 h, mean of Rat#1-6, read-out: Plasma concentration, Mean",403 ng/mL
same,concentration at 2 h,"100 mg/kg, Table S6, 100 mg/kg PO, 2 h, mean of Rat#1-6, read-out: Plasma concentration, Mean",371 ng/mL
same,concentration at 4 h,"100 mg/kg, Table S6, 100 mg/kg PO, 4 h, mean of Rat#1-6",175 ng/mL
same,concentration at 8 h,"100 mg/kg, Table S6, 100 mg/kg PO, 8 h, mean of Rat#1-6",57.5 ng/mL
same,concentration at 24 h,"100 mg/kg, Table S6, 100 mg/kg PO, 24 h, mean of Rat#1-6",9.15 ng/mL
same,concentration at 48 h,"100 mg/kg, Table S6, 100 mg/kg PO, 48 h, individual Rat#1-6, read-out: Plasma concentration",0.984 ng/mL
same,concentration at 48 h,"100 mg/kg, Table S6, 100 mg/kg PO, 48 h, mean of Rat#1-6, read-out: Plasma concentration, Mean",1.27 ng/mL
same,concentration at 0.25 h,"100 mg/kg, Table S7, 100 mg/kg PO, 0.25 h, individual Rat#7-12, read-out: Plasma concentration",400 ng/mL
same,concentration at 0.25 h,"100 mg/kg, Table S7, 100 mg/kg PO, 0.25 h, mean of Rat#7-12, read-out: Plasma concentration, Mean",415 ng/mL
same,concentration at 0.5 h,"100 mg/kg, Table S7, 100 mg/kg PO, 0.5 h, individual Rat#7-12, read-out: Plasma concentration",716 ng/mL
same,concentration at 0.5 h,"100 mg/kg, Table S7, 100 mg/kg PO, 0.5 h, mean of Rat#7-12, read-out: Plasma concentration, Mean",679 ng/mL
same,concentration at 1 h,"100 mg/kg, Table S7, 100 mg/kg PO, 1 h, individual Rat#7-12, read-out: Plasma concentration",830 ng/mL
same,concentration at 1 h,"100 mg/kg, Table S7, 100 mg/kg PO, 1 h, mean of Rat#7-12, read-out: Plasma concentration, Mean",870 ng/mL
same,concentration at 2 h,"100 mg/kg, Table S7, 100 mg/kg PO, 2 h, individual Rat#7-12, read-out: Plasma concentration",519 ng/mL
same,concentration at 2 h,"100 mg/kg, Table S7, 100 mg/kg PO, 2 h, mean of Rat#7-12, read-out: Plasma concentration, Mean",602 ng/mL
same,concentration at 4 h,"100 mg/kg, Table S7, 100 mg/kg PO, 4 h, mean of Rat#7-12",384 ng/mL
same,concentration at 8 h,"100 mg/kg, Table S7, 100 mg/kg PO, 8 h, mean of Rat#7-12",109 ng/mL
same,concentration at 24 h,"100 mg/kg, Table S7, 100 mg/kg PO, 24 h, mean of Rat#7-12",8 ng/mL
same,concentration at 48 h,"100 mg/kg, Table S7, 100 mg/kg PO, 48 h, mean of Rat#7-12, read-out: Plasma concentration, Mean",1.79 ng/mL
same,concentration at 0.25 h,"200 mg/kg, Table S8, 200 mg/kg PO, 0.25 h, individual Rat#13-18, read-out: Plasma concentration",489 ng/mL
same,concentration at 0.25 h,"200 mg/kg, Table S8, 200 mg/kg PO, 0.25 h, mean of Rat#13-18, read-out: Plasma concentration, Mean",425 ng/mL
same,concentration at 0.5 h,"200 mg/kg, Table S8, 200 mg/kg PO, 0.5 h, individual Rat#13-18, read-out: Plasma concentration",858 ng/mL
same,concentration at 0.5 h,"200 mg/kg, Table S8, 200 mg/kg PO, 0.5 h, mean of Rat#13-18, read-out: Plasma concentration, Mean",892 ng/mL
same,concentration at 1 h,"200 mg/kg, Table S8, 200 mg/kg PO, 1 h, individual Rat#13-18, read-out: Plasma concentration",984 ng/mL
same,concentration at 1 h,"200 mg/kg, Table S8, 200 mg/kg PO, 1 h, mean of Rat#13-18, read-out: Plasma concentration, Mean",1220 ng/mL
same,concentration at 2 h,"200 mg/kg, Table S8, 200 mg/kg PO, 2 h, individual Rat#13-18, read-out: Plasma concentration",1180 ng/mL
same,concentration at 2 h,"200 mg/kg, Table S8, 200 mg/kg PO, 2 h, mean of Rat#13-18, read-out: Plasma concentration, Mean",1040 ng/mL
same,concentration at 4 h,"200 mg/kg, Table S8, 200 mg/kg PO, 4 h, mean of Rat#13-18",725 ng/mL
same,concentration at 8 h,"200 mg/kg, Table S8, 200 mg/kg PO, 8 h, mean of Rat#13-18",206 ng/mL
same,concentration at 24 h,"200 mg/kg, Table S8, 200 mg/kg PO, 24 h, mean of Rat#13-18",4.99 ng/mL
